Experimental data from US7608408B2, “Methods of identifying compounds that inhibit Notch cleavage” (Bristol-Myers Squibb Company, priority 2005, dated 2009).

Tests used:
Format in all cases: cell-based
[1] = tested on: Notch signaling (Notch-1 ΔE / CBF1 luciferase reporter); assay: Inhibition of Notch signaling in HeLa cells transiently transfected with Notch-1 ΔE and CBF1 luciferase reporter; conditions: Homo sapiens
Description: (§1) HeLa cells were transiently transfected with Notch-1 ΔE and the CBF1 luciferase reporter, and inhibition of Notch signaling by compounds known to inhibit γ-secretase was determined. Induction of mucin-2 in HT29-L23 cells was determined as in Example 1 for the same set of γ-secretase inhibitory compounds.

HT29-L23 cells [2] = assay: Mucin-2 induction in HT29-L23 cells transfected with NICD, AICD or control plasmid (High Content Screening); conditions: 1 uM
Description: HT29-L23 cells were transiently transfected with control plasmid (pcDNA-DsRed) or Myc epitope tagged Notch intracellular domain (NICD) (activated Notch-1) or APP intracellular domain (AICD) (activated APP). Cells were treated with Compound Z (1 uM in DMSO) or vehicle, and protein expression was analyzed by High Content Screening as described in Example 1. After staining with Mucin-2 and Myc antibodies, the transfected subpopulation of cells (Myc positive) were used for final analysis. Cells without DsRed expression were designated as control. Statistical significance was determined by one-way ANOVA followed by Bonferroni's multiple comparison test performed within and between groups.

HT29 cells = assay: Mucin immunostaining in HT29 cells by microscopy; conditions: 1 uM, 72 hours, serum-free medium
Description: (§2) HT29 cells were seeded in 4 or 8 well slide chambers. 24 hours later, cells were treated for 72 hours in serum-free medium with either Compound Z (1 uM in DMSO) or DMSO at a final DMSO concentration of 0.1%. Treated cells were washed twice with PBS, fixed with 4% paraformaldehyde (10 min, RT) followed by methanol (2 min, −20° C.). Fixed cells were washed twice with PBS, incubated with PBS+0.5% TritonX100 for 10 min., washed twice with PBS and blocked for 2 hr in PBS containing 0.1% TritonX100, 2% BSA and 5% dry milk. Cells were stained with primary antibody against mucin-2, mucin-5AC, mucin-1, mucin-3, or mucin-6 by adding primary antibody in blocking buffer and incubating 1 hr, RT. Cells were washed 3× with PBS+0.1% TritonX100 and stained with an appropriate species-specific PE-, TRITC- or FITC-labeled secondary antibody for 30 min., RT. Cells were visualized through microscopy. γ-secretase inhibitor Compound Z induced mucin-2 and mucin-5AC (FIGS. 1A and 1B) but not mucin-1, mucin-3, or mucin-6 in HT29 cells.

HT29-L23 cells [3] = assay: Real time PCR of Notch pathway genes in HT29-L23 cells; conditions: relative to DMSO, normalized to PPIA
Description: HT29-L23 cells were treated with Compound Z or DMSO as described in Example 1. mRNA were isolated at indicated time points (FIGS. 5A-E) and analyzed by real time PCR with indicated Taqman probes (Applied Biosystems, Foster City, Calif.). Results were normalized relative to the amount of cyclophilin A (PPIA) mRNA for the same sample and were plotted as fold changes relative to DMSO treated sample at time zero. Statistical significance was determined by one-way ANOVA followed by Bonferroni's multiple comparison test performed within groups.

HT29-L23 cells [4] = assay: Mucin-2 induction in HT29-L23 cells; conditions: read-out: HT29-L23 IC50 (mucin-2 induction)
Description: as §2, with “Cells were washed 3× with PBS+0.1% TritonX100 and stained with an appropriate species-specific PE-, TRITC- or FITC-labeled secondary antibody for 30 min., RT. Cells were visualized through microscopy. γ-secretase inhibitor Compound Z induced mucin-2 and mucin-5AC (FIGS. 1A and 1B) but not mucin-1, mucin-3, or mucin-6 in HT29 cells.” left out
HT29 subclones were generated through limiting dilution. […] Mucin-2 positive cells were measured by FACS analysis (FIG. 2). […] Images were acquired on an ArrayScan™ system and analyzed for mucin-2 expression with the Target activation application (FIGS. 3A and 3B).
as §1

APP = APP cleavage assay (Aβ peptides); conditions: n=166
Text: (§3) Any method for determining the ability of a compound to inhibit cleavage of γ-secretase substrates known in the art may be employed. For example, methods for assessing the ability of a compound to cleave APP are known. The ability of a compound to cleave APP may be assessed, for example, by measuring or detecting Aβ peptides (e.g., Aβ1-40, Aβ1-42; see, e.g., U.S. Published Application No. 2003/0215896).

Notch = Notch cleavage assay; conditions: n=252
Text: as §3

Q: Which results are given for C[C@H](NC(=O)[C@@H](O)c1cc(F)cc(F)c1)C(=O)N[C@@H]1C(=O)N(C)N=Cc2ccccc21 [Compound 1]?
A: IC50 [1]: 4.59 nM; number of cells producing mucin-2 (HT29-L23 cells [2]; AICD (activated APP) transfected group): increased; number of cells producing mucin-2 (HT29-L23 cells [2]; Control group): increased; mucin-1 induction (HT29 cells): not; mucin-2 induction (HT29 cells): induced; mucin-3 induction (HT29 cells): not; mucin-5AC induction (HT29 cells): induced; mucin-6 induction (HT29 cells): not; Delta-1 mRNA (HT29-L23 cells [3]): induced; HES-1 mRNA (HT29-L23 cells [3]): downregulated; Jagged-2 mRNA (HT29-L23 cells [3]): induced; Math-1 mRNA (HT29-L23 cells [3]): induced; Mucin-2 mRNA (HT29-L23 cells [3]): induced; IC50 (HT29-L23 cells [4]): 11.9 nM; EC50 (APP): 0.81 nM; EC50 (Notch): 2.1 nM
